Assay results taken from patent US20260103497A1, “DUAL GLP-1 AND GIP RECEPTOR AGONIST PHARMACEUTICAL COMPOSITION AND USE THEREOF” (BRIGHTGENE PTE. LTD., priority 2022, published 2026).

Key:
[1] = Pre-clinical pharmacokinetics in cynomolgus monkeys; details: cynomolgus monkey, in vivo
[2] = target: GLP-1 receptor (Homo sapiens, UniProt P43220); assay: Preclinical agonistic effect on GLP-1 receptor; details: greater activity compared to Tirzepatide; preclinical studies
[3] = system: plasma proteins; assay: Plasma protein binding; assay type: in vitro ADME; details: plasma proteins from all species
[4] = Solubility of the compound of formula I in compositions with sodium chloride or propylene glycol; assay type: physicochemical; details: disodium hydrogen phosphate dodecahydrate, pH 7, water for injection
Text: It is worth mentioning that in polypeptide-based preparations, sodium chloride is believed to play a role in maintaining electrolyte balance and stabilizing polypeptide structures, and it is present as a stabilizer in a variety of existing polypeptide-based preparations.

[5] = target: T1, GIP receptor (Homo sapiens, UniProt P48546); assay: Preclinical agonistic effect on GIP receptor; details: greater activity compared to Tirzepatide; preclinical studies
T1 sequence (P48546 22-466): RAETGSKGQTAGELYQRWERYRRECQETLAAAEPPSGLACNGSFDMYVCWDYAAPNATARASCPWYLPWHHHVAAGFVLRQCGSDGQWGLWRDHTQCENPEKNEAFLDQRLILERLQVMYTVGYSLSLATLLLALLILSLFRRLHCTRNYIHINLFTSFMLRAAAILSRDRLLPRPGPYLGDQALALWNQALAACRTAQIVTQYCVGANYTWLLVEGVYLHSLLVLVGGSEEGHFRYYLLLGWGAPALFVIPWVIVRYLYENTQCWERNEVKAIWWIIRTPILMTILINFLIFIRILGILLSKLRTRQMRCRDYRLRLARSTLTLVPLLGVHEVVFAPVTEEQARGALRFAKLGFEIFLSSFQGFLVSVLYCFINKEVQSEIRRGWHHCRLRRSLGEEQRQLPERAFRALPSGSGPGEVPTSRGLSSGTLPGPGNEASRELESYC

[6] = Pre-clinical pharmacokinetics in rats; details: rat, in vivo

GLP-1 receptor, sequence (P43220 24-463, species assumed): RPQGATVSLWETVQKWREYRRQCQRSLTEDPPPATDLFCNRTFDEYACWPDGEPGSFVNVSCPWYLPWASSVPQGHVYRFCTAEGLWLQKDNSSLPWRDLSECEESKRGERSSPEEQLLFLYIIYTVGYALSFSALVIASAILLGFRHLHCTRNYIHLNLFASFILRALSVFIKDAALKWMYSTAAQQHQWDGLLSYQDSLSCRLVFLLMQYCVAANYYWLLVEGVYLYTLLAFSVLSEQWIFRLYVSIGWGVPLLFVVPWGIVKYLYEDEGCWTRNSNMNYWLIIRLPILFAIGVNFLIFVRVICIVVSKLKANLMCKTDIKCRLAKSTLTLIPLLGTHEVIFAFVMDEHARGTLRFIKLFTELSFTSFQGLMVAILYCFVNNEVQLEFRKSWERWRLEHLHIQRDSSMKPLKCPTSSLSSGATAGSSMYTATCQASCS

In the case of `NC(=O)C(CCCCNC(=O)COCCOCCOCCNC(=O)COCCOCCOCCNC(=O)CCC(NC(=O)CC(=O)O)C(=O)O)NN[C@H](C=O)CO` (stereo partly shown) [Compound of formula I], the half-life [1] is reported as ~40 h, the “agonistic activity on GLP-1 receptor compared to Tirzepatide” value [2] is reported as 2- to 3 fold and the “binding rates to plasma proteins” value [3] is reported as “over 99.4%”. For the same compound, the solubility ([4]; pH 7, propylene glycol as stabilizer (14 mg in 1 mL)) was ≥ 30000 µg/mL, the solubility ([4]; sodium chloride instead of propylene glycol (16.4 mg in 2 mL)) was 150 µg/mL and the “agonistic activity on GIP receptor compared to Tirzepatide” value [5] was 2- to 3 fold. The half-life [6] was ~14 h.
